Each structure is given as a SMILES string. Residues, ends and D or L forms follow the SMILES beside them.

Common to all, as to format: cell-based, human
One series has as its system MMP-9. The series is described as follows: Gelatin zymography of conditioned media, MMP-9 production. The conditions noted are these: compared to control containing no peptide. The text has this: To assess whether the peptide SEQ ID NO.1 impacted MMP-2, MMP-9 and uPA production Zymography was used.
Zymography is a technique for studying hydrolytic enzymes on the basis of substrate degradation. The in-gel zymography hydrolytic enzymes are separated by their molecular weights and detected by their ability to degrade a substrate. To detect the activity of MMP-2 and MMP-9 in various cell lines, conditioned media were collected in 3 independent experiments and analysed by gelatin zymography to quantify the level of gelatin digestion, which reflects MMP-2 and MMP-9 activity and production. Casein-Plasminogen zymography was conducted to determine the activity level of uPA in the conditioned medium from various cell lines. Active uPA converts plasminogen into plasmin which then digests casein, thus clear bands where digestion of casein have occurred indirectly represent uPA activity.
The effect of the peptides on matrix protease production was tested using in-gel zymography. If the substrate included in the gel is gelatin, the enzymes detected are gelatinases: MMP-2 and MMP-9 (the latter is often of low abundance). If the gel contains casein and plasminogen, the enzymes tested are urokinase plasminogen activators (uPA); uPA is a therapeutic target in GBM.
An equal amount of protein from each sample was mixed with 5 μL of Laemmli buffer (0.01% Bromophenol Blue (W/V), 5% SDS (W/V), 22% glycerol (V/V), 14% 0.5 M Tris pH 6.8 (V/V)) and loaded onto a 10% polyacrylamide gel co-polymerized with 1 mg/ml of gelatin, and electrophoresed at 120 V for 2 hours on ice. The gel was incubated in […] solution (Triton X-100 2.5% (V/V), 1 M Tris pH 7.5 5% (V/V), 0.5 M CaCl2 1% (W/V) at room temperature overnight on an orbital shaker. The gel was incubated in a second solution for 3 hours at 37° C. The gel was then stained with Coomassie blue solution (Coomassie blue 0.25%, methanol 45%, acetic acid 10%) and destained in methanol 25% (V/V), acetic acid 10% (V/V) destaining solution until clear bands against the dark background appeared around 72 kDa and 95 kDa, representing MMP-2 and MMP-9 activity, respectively. Clear bands around 50 kDa appeared against the dark background representing uPA activity. The gels were scanned, and uPA, MMP-2 and MMP-9 were quantified by densitometry using NIH Image J software.
SEQ ID NO.1 was compared to a control containing no peptide to evaluate whether the peptide can reduce the production of matrix proteinases. A reduction in the production of matrix proteinases may be anticipated to result in comparatively less degradation of the extra-cellular matrix and so this could be one pathway by which the invasion potential could be reduced. […] This could be confirmed using a MMP-9 quantification kit, and altered production by a transcriptional mechanism can be unveiled using qRT-PCR.

The test system of the next series is 081024 cells. The series can be described thus: MTT assay for cytotoxicity, 081024 oncospheres. The conditions noted are these: % viability of control. The text has this:
(§1) The MTT (3-[4.5-dimethylthiazol-2-yl]-2,5═diphenyl tetrazolium bromide) assay is based on a process undertaken by living cells, involving the conversion of MTT into formazan crystals. This assay is used routinely to measure the in vitro cytotoxic effects of drugs on cell lines or primary patient cells (Van Meerloo et al., 2011). The MTT assay measures mitochondrial activity, so in some instances where the peptide activates mitochondrial response, the results appear to increase the number of cells present i.e. >100% cell viability.
(§2) The aim of this experiment was to identify peptide concentrations that are active on living cells and cell viability was assessed.
(§3) The glioblastoma multiforme (GBM) cell lines used were U87 and U251 cells and patient derived cells grown as oncospheres (081024 cells). Human adherent GBM cell lines U87 and U251 were cultured in RPMI medium (Life Technologies Melbourne Australia) supplemented with 5% v/v FBS, 100 U/mL penicillin and 100 μg/mL streptomycin. 081024 cells were cultrured in NeuroCult™ NS-A Proliferation medium with 0.2% (v/v) heparin, 20 ng/mL EGF and 10 ng/mL FGF.
(§4) 8×10^3 U87 and 7×10^3 U251 cells per well were seeded in 96 well plates in 200 μL serum-containing RPMI medium and incubated at 37° C. with 5% CO2 for 24 hours. After one wash with serum-free medium, 100 μL serum-free medium with different concentration of peptide SEQ ID NO:1 was added to each well. After 48 hours incubation, 10 μL of 0.5 mg/mL MTT was added and incubated for 2 hours at 37° C. Formazan crystals were dissolved by 200 μL/well dimethyl sulfoxide (DMSO) and shaking for 15 minutes. The UV absorbance was read with an iMark™ microplate absorbance reader at 595 nm (Bio-Rad Laboratories). Background absorbance was subtracted and results expressed as the % viability of control (untreated cells).

A further series deals with U251 cells. The series can be described thus: MTT assay for cytotoxicity, U251. The conditions noted are these: 48 hours, % viability of control.
From the text: as §1, §2, §3, §4

For the compound `CC(C)C[C@@H]1NC(=O)[C@H](C)NC(=O)[C@@H](NC(=O)[C@@H]2CCCN2C(=O)[C@@H](N)CC(C)C)CSSC(C)(C)CNC(=O)CC[C@@H](C(=O)N[C@@H](CCCNC(=N)N)C(N)=O)NC(=O)[C@H](CC(=O)O)NC(=O)[C@H](CC(N)=O)NC1=O` [SEQ ID NO: 1, Leu-Pro-c(SSA*-Ala-Leu-Asn-Asp-Glu)-Arg-NH2] (HELM PEPTIDE1{L.P.C.A.L.N.D.E.R.[am]}|CHEM1{[CC(C)(CN[*:2])S[*:1]]}$PEPTIDE1,CHEM1,3:R3-1:R1|PEPTIDE1,CHEM1,8:R3-1:R2$$$V2.0; N-terminus assumed), the “metalloprotease production, MMP-9” value in the series with MMP-9 (081024 cells) is given as 98.96; with MMP-9 (U87 cells, listed as SEQ ID NO. 1), 58.61; in the series with MMP-9 (U87 cells, listed as SEQ ID NO.1) it was “decreased production”; in the series with MMP-9 (U251 cells, listed as SEQ ID NO. 1), 63.4; in the series with MMP-9 (U251 cells, listed as SEQ ID NO.1), “decreased production”. Also, the Cell viability with 081024 cells (1 μM) turned out to be 104.2%; in the series with 081024 cells (5 μM), 106.8%; in the series on 081024 cells (10 μM) it was 106.7%; in the series with 081024 cells (50 μM), 106.5%; in the series with 081024 cells (100 μM), 106.9%; with 081024 cells (500 μM) it was 99.68%. For the same compound, the Cell viability in the series with 081024 cells (1 mM) is recorded as 89.58%; in the series with U251 cells (1 μM), 100.7%; in the series on U251 cells (5 μM), 101.7%; in the series with U251 cells (10 μM), 100.4%; in the series on U251 cells (50 μM), 107.3%; in the series with U251 cells (100 μM), 105.5%. For the same compound, the Cell viability in the series with U251 cells (500 μM) was found to be 93.84%; in the series with U251 cells (1 mM), 83.99%.

Source of the values: US20240059740A1, “CYCLIC PEPTIDES AND USES THEREOF” (PRE[…] INC., priority 2020, published 2024).
